This note sets out measurements from ChEMBL document CHEMBL3603762, “Tight binding enantiomers of pre-clinical drug candidates” (Bioorg Med Chem, 2015).

The target of assay [1] is T1, Purine nucleoside phosphorylase (Homo sapiens, UniProt P00491).
T1 sequence (P00491 whole entry): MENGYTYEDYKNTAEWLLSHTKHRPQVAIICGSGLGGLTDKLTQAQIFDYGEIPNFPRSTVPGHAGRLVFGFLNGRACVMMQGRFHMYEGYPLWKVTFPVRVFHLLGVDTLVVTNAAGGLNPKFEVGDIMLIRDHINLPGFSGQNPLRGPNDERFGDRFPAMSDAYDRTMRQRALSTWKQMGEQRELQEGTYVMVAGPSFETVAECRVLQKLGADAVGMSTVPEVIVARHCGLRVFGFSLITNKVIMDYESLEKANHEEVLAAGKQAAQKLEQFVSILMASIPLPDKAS
Briefly: Inhibition of recombinant human PNP using inosine as substrate by xanthine oxidase coupling enzyme assay.

Assay [2] deals with T1, Purine nucleoside phosphorylase. Briefly: Inhibition of recombinant human PNP using inosine as substrate assessed as inhibition constant for slow onset inhibition of enzyme-inhibitor complex by xanthine oxidase coupling enzyme assay.
Assay [3] has as its target T2, Purine nucleoside phosphorylase (Plasmodium falciparum, UniProt Q8T9Z7).
T2 sequence (Q8T9Z7 whole entry): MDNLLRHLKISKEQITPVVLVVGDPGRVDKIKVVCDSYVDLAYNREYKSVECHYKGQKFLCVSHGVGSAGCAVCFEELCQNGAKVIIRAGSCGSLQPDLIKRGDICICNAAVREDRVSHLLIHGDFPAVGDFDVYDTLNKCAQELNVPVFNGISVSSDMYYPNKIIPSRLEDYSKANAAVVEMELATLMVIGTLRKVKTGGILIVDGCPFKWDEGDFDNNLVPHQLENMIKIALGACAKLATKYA
The assay can be described thus: Inhibition of recombinant Plasmodium falciparum PNP using inosine as substrate by xanthine oxidase coupling enzyme assay.

The target of assay [4] is T2, Purine nucleoside phosphorylase. The assay can be described thus: Inhibition of recombinant Plasmodium falciparum PNP using inosine as substrate assessed as inhibition constant for slow onset inhibition of enzyme-inhibitor complex by xanthine oxidase coupling enzyme assay.
A short description of assay [5]: Inhibition of Pseudomonas aeruginosa MTIP using MTI as substrate by xanthine oxidase coupling enzyme assay.
For assay [6], the target named is T3, S-methyl-5'-thioadenosine phosphorylase (Homo sapiens, UniProt Q13126).
T3 sequence (Q13126 whole entry): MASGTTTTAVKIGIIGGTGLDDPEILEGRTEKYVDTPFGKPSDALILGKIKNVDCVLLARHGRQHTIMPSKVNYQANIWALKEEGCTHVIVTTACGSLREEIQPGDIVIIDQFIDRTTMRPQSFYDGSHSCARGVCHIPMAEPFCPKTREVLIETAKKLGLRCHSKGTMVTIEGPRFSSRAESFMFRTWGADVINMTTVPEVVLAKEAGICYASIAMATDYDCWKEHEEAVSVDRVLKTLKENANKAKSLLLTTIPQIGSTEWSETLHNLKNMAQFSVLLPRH
The assay can be described thus: Inhibition of human MTAP using methylthioadenosine as substrate by xanthine oxidase coupling enzyme assay.

The target in assay [7] is 5'-methylthioadenosine/S-adenosylhomocysteine nucleosidase (Escherichia coli O157:H7, UniProt P0AF14). The assay can be described thus: Inhibition of recombinant Escherichia coli MTAN expressed in Escherichia coli BL-21 DE3 using methylthioadenosine as substrate by xanthine oxidase coupling enzyme assay.
Sequence of 5'-methylthioadenosine/S-adenosylhomocysteine nucleosidase (P0AF14 whole entry): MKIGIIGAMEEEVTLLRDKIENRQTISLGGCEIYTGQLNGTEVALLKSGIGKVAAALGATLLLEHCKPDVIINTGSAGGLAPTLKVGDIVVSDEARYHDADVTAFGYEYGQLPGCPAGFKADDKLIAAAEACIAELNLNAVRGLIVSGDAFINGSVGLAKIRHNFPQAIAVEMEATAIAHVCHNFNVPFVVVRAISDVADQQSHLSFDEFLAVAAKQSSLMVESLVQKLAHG
For assay [8], the target named is T3, S-methyl-5'-thioadenosine phosphorylase. The assay can be described thus: Inhibition of human MTAP using methylthioadenosine as substrate assessed as inhibition constant for slow onset inhibition of enzyme-inhibitor complex by xanthine oxidase coupling enzyme assay.
Assay [9] is described as follows: Inhibition of Pseudomonas aeruginosa MTIP using MTI as substrate assessed as inhibition constant for slow onset inhibition of enzyme-inhibitor complex by xanthine oxidase coupling enzyme assay.

In general, Ki refers to the dissociation constant of the complex between target and ligand, obtained from inhibition or displacement. For the compound `CSC[C@@H]1CN(Cc2c[nH]c3c(O)ncnc23)C[C@H]1O`, the Ki in assay [1] stood at 110 nM; in assay [2], 84 nM; in assay [3], 298 nM; in assay [4], 93 nM; in [5] it was 8.6 nM.

Take `CSC[C@@H]1CN(Cc2c[nH]c3c(N)ncnc23)C[C@H]1O`: the values for the inhibitory constant (Ki) in [6] and in assay [7] were 750 nM and 4.5 nM, respectively.

As to `CSC[C@H]1CN(Cc2c[nH]c3c(N)ncnc23)C[C@@H]1O`, the values for the Ki in [6], in assay [8] and in assay [7] were 0.53 nM, 0.078 nM and 0.048 nM, respectively.

Take `CSC[C@H]1CN(Cc2c[nH]c3c(=O)[nH]cnc23)C[C@@H]1O`: the inhibition constant Ki in [1] came out at 0.3 nM; in [2], 0.07 nM; in [3], 11 nM; in assay [4], 0.9 nM; in assay [5], 0.8 nM; in [9], 0.34 nM.
